Experimental findings from patent publication EP2601188B1, “HEPATITIS C VIRUS INHIBITORS” (Bristol-Myers Squibb Company, priority 2010, dated 2012) are described below.

The experiment has as its system HCV 1b genotype. Briefly: HCV Replicon assay (HCV-neo replicon cells, wild-type). In kind it is cell-based. The settings on record: HCV 1b genotype replicon; for pEC50: class symbols, read-out: EC50 Range; for EC50: values in nM, read-out: EC50. How it is done: An HCV Replicon assay was utilized in the present disclosure, and was prepared, conducted and validated as described in commonly owned PCT/US2006/022197 and in O'Boyle et. al. Antimicrob Agents Chemother. 2005 Apr;49(4):1346-53. Assay methods incorporating luciferase reporters have also been used as described (Apath.com).
HCV-neo replicon cells and replicon cells containing mutations in the NS5A region were used to test the currently described family of compounds. The compounds were determined to have more than 10-fold less inhibitory activity on cells containing mutations than wild-type cells. Thus, the compounds of the present disclosure can be effective in inhibiting the function of the HCV NS5A protein and are understood to be as effective in combinations as previously described in application PCT/US2006/022197 and commonly owned WO/O4014852. Further, the compounds of the present disclosure can be effective against the HCV 1b genotype. It should also be understood that the compounds of the present disclosure can inhibit multiple genotypes of HCV. […] In one embodiment, compounds of the present disclosure are inhibitory versus 1a, 1b, 2a, 2b, 3a, 4a, and 5a genotypes.
In general terms: In antiviral work, replicon cells carry a viral genome segment that copies itself.

pEC50: −log10 of the molar value. Like-named read-outs stand apart in the source and are kept apart here.

Regarding `CC(=O)N1CCC[C@H]1C(=O)Nc1ccc(C#Cc2ccc3nc([C@@H]4CCCN4C(=O)Cc4ccccc4)[nH]c3c2)cc1` [M.8, (S)-1-acetyl-N-(4-((2-((S)-1-(2-phenylacetyl)pyrrolidin-2-yl)-1H-benzo[d]imidazol-6-yl)ethynyl)phenyl)pyrrolidine-2-carboxamide], for the setting “Hepatitis C virus”, the negative-log EC50 (pEC50) (usually the EC50 on a negative log10 scale, so that one unit is a factor of ten) was 7.00 to 8.34 and the EC50 (commonly the concentration giving half of the maximal effect) was found to be 46.4 nM.

Consider `O=C(Nc1ccc(C#Cc2ccc3nc([C@@H]4CCCN4C(=O)Cc4ccccc4)[nH]c3c2)cc1)[C@@H]1CCCN1C(=O)Cc1ccccc1` [M.9, (S)-1-(2-phenylacetyl)-N-(4-((2-((S)-1-(2-phenylacetyl)pyrrolidin-2-yl)-1H-benzo [d]imidazol-6-yl)ethynyl)phenyl)pyrrolidine-2-carboxamide], for which the negative-log EC50 (pEC50) (Hepatitis C virus) was 7.00 to 8.34. With `CC(=O)N1CCC[C@H]1C(=O)Nc1ccc(CCc2ccc3nc([C@@H]4CCCN4C(=O)Cc4ccccc4)[nH]c3c2)cc1` [M.10, (S)-1-acetyl-N-(4-(2-(2-((S)-1-(2-phenylacetyl)pyrrolidin-2-yl)-1H-benzo[d]imidazol-6-yl)ethyl)phenyl)pyrrolidine-2-carboxamide], where the note is “Hepatitis C virus”, the pEC50 was 6.00 to 7.00 and the half-maximal effective concentration (EC50) stood at 202 nM. Take `O=C(Nc1ccc(CCc2ccc3nc([C@@H]4CCCN4C(=O)Cc4ccccc4)[nH]c3c2)cc1)[C@@H]1CCCN1C(=O)Cc1ccccc1` [M.11, (S)-1-(2-phenylacetyl)-N-(4-(2-(2-((S)-1-(2-phenylacetyl)pyrrolidin-2-yl)-1H-benzo [d]imidazol-6-yl)ethyl)phenyl)pyrrolidine-2-carboxamide]: the pEC50 (Hepatitis C virus) was 7.00 to 8.34. With “(2R)-2-(dimethylamino)-N-(3-(5-(2-((2S)-1-((2R)-2-(dimethylamino)-2-phenylacetyl)-2-pyrrolidinyl)-1H-benzimidazol-5-yl)-1,3-oxazol-2-yl)phenyl)-2-phenylacetamide [J.48b]”, the pEC50 was 7.00 to 8.34.
